According to the supplement of paper PMC10307832:

How the values were obtained:
Test in all cases: relative viability (nuclei count vs DMSO), 5 days (fraction); higher = more cells survive
AZ505 + Tozasertib = compound: C1CCC(CC1)N(CCNCCC2=C3C(=C(C=C2)O)NC(=O)CO3)C(=O)CCNCCC4=CC(=C(C=C4)Cl)Cl [AZ505] + Cc1cc(Nc2cc(N3CCN(C)CC3)nc(Sc3ccc(NC(=O)C4CC4)cc3)n2)n[nH]1 [Tozasertib] (partner 0.1 µM)
In short: (§1)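 Medians of duplicate plates are given as relative viability. That measure is the nuclei count in treated wells divided by the count in vehicle wells. Counts were taken on 4× images of lung cancer cell lines in 1536-well plates, 5 days after pin-tool dosing the day after seeding with one drug alone or a fixed anchor-drug dose plus five library-drug doses (not always all listed) in √10 steps.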

Dactolisib + Linsitinib = compound: Cn1c(=O)n(-c2ccc(C(C)(C)C#N)cc2)c2c3cc(-c4cnc5ccccc5c4)ccc3ncc21 [Dactolisib] + C[C@]1(O)C[C@@H](c2nc(-c3ccc4ccc(-c5ccccc5)nc4c3)c3c(N)nccn32)C1 [Linsitinib] (partner 1 µM)
In short: as §1

Dactolisib + Bortezomib = compound: Cn1c(=O)n(-c2ccc(C(C)(C)C#N)cc2)c2c3cc(-c4cnc5ccccc5c4)ccc3ncc21 [Dactolisib] + CC(C)C[C@H](NC(=O)[C@H](Cc1ccccc1)NC(=O)c1cnccn1)B(O)O [Bortezomib] (partner 0.002 µM)
In short: as §1

Dactolisib + Foretinib = compound: Cn1c(=O)n(-c2ccc(C(C)(C)C#N)cc2)c2c3cc(-c4cnc5ccccc5c4)ccc3ncc21 [Dactolisib] + COc1cc2c(Oc3ccc(NC(=O)C4(C(=O)Nc5ccc(F)cc5)CC4)cc3F)ccnc2cc1OCCCN1CCOCC1 [Foretinib] (partner 0.25 µM)
In short: as §1

| Cell Line | relative viability (AZ505 + Tozasertib; first compound 0.08 µM) | relative viability (AZ505 + Tozasertib; first compound 0.253 µM) | relative viability (AZ505 + Tozasertib; first compound 0.8 µM) | relative viability (AZ505 + Tozasertib; first compound 2.53 µM) | relative viability (AZ505 + Tozasertib; first compound 8 µM) | relative viability (Dactolisib + Linsitinib; first compound 0.002 µM) | relative viability (Dactolisib + Linsitinib; first compound 0.006325 µM) | relative viability (Dactolisib + Linsitinib; first compound 0.02 µM) | relative viability (Dactolisib + Linsitinib; first compound 0.06325 µM) | relative viability (Dactolisib + Linsitinib; first compound 0.2 µM) | relative viability (Dactolisib + Bortezomib; first compound 0.002 µM) | relative viability (Dactolisib + Bortezomib; first compound 0.006325 µM) | relative viability (Dactolisib + Bortezomib; first compound 0.02 µM) | relative viability (Dactolisib + Bortezomib; first compound 0.06325 µM) | relative viability (Dactolisib + Bortezomib; first compound 0.2 µM) | relative viability (Dactolisib + Foretinib; first compound 0.002 µM) | relative viability (Dactolisib + Foretinib; first compound 0.006325 µM) | relative viability (Dactolisib + Foretinib; first compound 0.02 µM) | relative viability (Dactolisib + Foretinib; first compound 0.06325 µM) | relative viability (Dactolisib + Foretinib; first compound 0.2 µM) |
| --- | --- | --- | --- | --- | --- | --- | --- | --- | --- | --- | --- | --- | --- | --- | --- | --- | --- | --- | --- | --- |
| NCI-H596 | 0.845 | 0.894 | 0.708 | 0.821 | 0.726 | 1.18 | 0.935 | 0.924 | 0.523 | 0.387 | 0.939 | 0.989 | 0.908 | 0.769 | 0.357 | 0.83 | 0.809 | 0.473 | 0.316 | 0.242 |
| A-427 | 0.211 | 0.177 | 0.194 | 0.187 | 0.216 | 1.16 | 1.12 | 1.14 | 0.748 | 0.609 | 0.947 | 0.959 | 0.966 | 0.61 | 0.581 | 1.2 | 1.05 | 0.873 | 0.56 | 0.46 |
| EMC-BAC-2 | 0.268 | 0.323 | 0.299 | 0.274 | 0.275 | 0.872 | 0.806 | 0.798 | 0.591 | 0.475 | 1.11 | 1.06 | 1.09 | 0.859 | 0.63 | 1.04 | 0.976 | 0.984 | 0.501 | 0.484 |
| NCI-H441 | 0.564 | 0.546 | 0.625 | 0.534 | 0.589 | 0.594 | 0.592 | 0.435 | 0.343 | 0.286 | 0.523 | 0.457 | 0.305 | 0.157 | 0.196 | 1.14 | 1.04 | 0.961 | 0.432 | 0.382 |
| LCLC-103H | 0.508 | 0.504 | 0.434 | 0.461 | 0.459 | 1.06 | 1.07 | 0.934 | 0.661 | 0.531 | 1.03 | 1.14 | 0.964 | 0.743 | 0.71 | 1.05 | 0.763 | 0.654 | 0.517 | 0.303 |
| HCC-827 | 0.421 | 0.426 | 0.448 | 0.436 | 0.447 | 1.02 | 0.919 | 1.03 | 0.911 | 0.699 | 1.12 | 1.01 | 1.11 | 1.14 | 1.05 | 0.995 | 1.04 | 0.913 | 0.815 | 0.283 |
| NCI-H1355 | 0.57 | 0.534 | 0.586 | 0.534 | 0.527 | 0.848 | 0.761 | 0.733 | 0.354 | 0.257 | 1.21 | 1.21 | 1.13 | 0.937 | 0.525 | 1.05 | 0.902 | 0.664 | 0.509 | 0.223 |
| NCI-H1734 | 0.259 | 0.276 | 0.243 | 0.219 | 0.215 | 1.02 | 0.755 | 0.72 | 0.336 | 0.318 | 0.92 | 0.741 | 0.781 | 0.346 | 0.243 | 0.837 | 0.773 | 0.805 | 0.467 | 0.284 |
| HARA | 0.165 | 0.102 | 0.0957 | 0.106 | 0.0964 | 1 | 0.884 | 0.842 | 0.573 | 0.211 | 1.12 | 1.08 | 1.13 | 1.1 | 0.491 | 1.12 | 0.878 | 0.771 | 0.763 | 0.225 |
| HCC-15 | 0.363 | 0.299 | 0.36 | 0.344 | 0.322 | 0.976 | 0.864 | 0.873 | 0.441 | 0.367 | 0.977 | 0.987 | 0.961 | 0.823 | 0.554 | 1.02 | 1.01 | 0.936 | 0.548 | 0.446 |
| LCLC-97TM1 | 0.218 | 0.196 | 0.214 | 0.316 | 0.302 | 0.157 | 0.186 | 0.208 | 0.157 | 0.132 | 0.766 | 0.489 | 0.528 | 0.525 | 0.128 | 1.05 | 0.923 | 0.688 | 0.668 | 0.367 |
| RERF-LC-KJ | 0.432 | 0.432 | 0.467 | 0.459 | 0.388 | 0.86 | 0.908 | 0.849 | 0.646 | 0.495 | 1.17 | 0.978 | 1.01 | 0.641 | 0.574 | 0.852 | 0.826 | 0.87 | 0.527 | 0.399 |
| NCI-H1651 | 0.65 | 0.784 | 0.633 | 0.725 | 0.606 | 1.03 | 0.743 | 0.714 | 0.321 | 0.293 | 1.05 | 0.952 | 0.884 | 0.886 | 0.67 | 0.918 | 0.782 | 0.561 | 0.321 | 0.345 |
| NCI-H2170 | 0.845 | 0.715 | 0.641 | 0.741 | 0.766 |  |  |  |  |  |  |  |  |  |  | 0.995 | 1.01 | 0.895 | 0.85 | 0.174 |
| NCI-H2023 | 0.293 | 0.371 | 0.395 | 0.298 | 0.322 | 0.697 | 0.523 | 0.622 | 0.154 | 0.133 | 0.673 | 0.805 | 0.655 | 0.171 | 0.123 |  | 0.672 | 0.491 | 0.343 | 0.153 |
| LC-2-ad | 0.478 | 0.415 | 0.436 | 0.411 | 0.413 | 0.722 |  | 0.751 | 0.488 | 0.565 | 1.09 |  | 1.04 | 0.734 | 0.52 | 1.08 | 0.917 | 0.839 | 0.545 | 0.551 |
| NCI-H1703 |  |  |  |  |  |  | 0.637 | 0.891 | 0.417 | 0.468 | 0.321 | 0.272 | 0.159 | 0.199 | 0.213 |  | 0.389 | 0.381 | 0.281 | 0.325 |
